Source: patent US10213482B2, “Methods of treating chronic inflammatory diseases” (Centre National de la Recherche Scientifique, priority 2014, dated 2019)
Square brackets hold non-standard residues; d marks the D form. Ends that are not written are not given here. Peptide text beside a SMILES is read from it. Met(O) = CS(=O)CC[C@H](N)C(=O)O; pS = N[C@@H](COP(=O)(O)O)C(=O)O

Tests used:
Balb/c mice = test: 15-day ovalbumin-induced airway hypereosinophilia model, BAL cell counts; assay type: in vivo, mouse; settings: i.n. or i.v., control mice challenged with saline; no pro-inflammatory effect
Method: The anti-inflammatory effect of the P140 phosphopeptide was evaluated when administered locally (intranasally) or systemically (intravenously) in a 15-day model of hypereosinophilic airway inflammation in mice.
The P140 phosphopeptide was solubilized in sterile water (Braun) and 10× concentrate sterile saline was added to adjust osmolarity to 300 mosm. Osmolarity was controlled with a micro osmometer (Loser, type 15) and validated (302 mosm).
The P140 phosphopeptide was used in vivo at the dose of 4 mg/kg by intranasal (i.n.) and intravenous (i.v.) routes. Control animals received equivalent volumes (1 ml/kg for i.n. and 2 ml/kg for i.v.) of saline (Table 6).
Nine-week-old male Balb/c mice were sensitized by intraperitoneal (i.p.) injections of a mixture containing 50 μg OVA (Sigma-Aldrich) and 2 mg alum (Sigma-Aldrich) in 0.1 ml saline. Mice were challenged by i.n. administration of 25 μl of OVA on day 5, then 25 μl of OVA and/or saline on day 12, 13 and 14. […]
BAL was performed twenty-four hours after LPS challenge as described (Daubeuf, F. and Frossard, N. 2012. Performing Bronchoalveolar Lavage in the Mouse. Curr Protoc Mouse Biol 2:167-175). […] The cell pellet was suspended in 500 μl of 0.9% NaCl and used for total cell counts evaluated on a Muse® Cell Analyser. Differential cell counts were assessed by flow cytometry (LSRII® cytometer, BD Bioscience). […]

[1] = Stability of the peptides at 37° C. in 10% mannitol (HPLC peak area); assay type: physicochemical
Method: The stability of the peptide SEQ ID NO: 1 in which the serine at position 10 is phosphorylated and the methionine at position 4 is oxydized (P140(MO)), and the peptide SEQ ID NO: 1 in which the serine at position 10 is phosphorylated (P140) was measured at 37° C., in a solution of 10% (v/v) mannitol. For each peptide, 3 concentrations have been tested: 200, 100 and 50 μg/mL.
At the indicated time, the integrity of P140 and P140(MO) peptides was measured in saline by high-performance liquid chromatography from the area of the peak corresponding to the intact peptide.
Stability is measured by using the HPLC peak surface.

Recombinant bovine HSC70 = biological target: T1, Recombinant bovine HSC70 (Bos taurus, UniProt P19120); test: BIAcore binding of P140 peptides to HSC70
T1 construct: purchased Stressgen
Method: BIAcore 3000 system (Biacore AB) was used to evaluate the binding of P140 peptides to HSC70 protein (Page et al., 2009, and 2011). Sensor chip CMS, surfactant P20, amine coupling kit containing N-hydroxysuccinimide (NHS) and N-ethyl-N′-dimethylaminopropyl carbodiimide (EDC), 2-(2-pyridinyldithio)ethaneamine (PDEA) and ethanolamine were from Biacore AB. Biosensor assays were performed with HBS-EP buffer as running buffer (10 mM HEPES, 150 mM NaCl, 3 mM EDTA, 0.005% surfactant P20, pH 7.4). The compounds were diluted in the running buffer. The sensor chip surface was regenerated after each experiment by injecting 10 μL of 10 mM HCl. Recombinant bovine HSC70 (Stressgen) was immobilized on flow cells of a CMS sensor chip through its thiol groups using 35 μL PDEA in 50 mM borate buffer, pH 8.3 on the NHS/EDC-activated matrix. Then, 35 μL of HSC70 (100 μg/mL in formate buffer, pH 4.3) were injected until a response of 13,000 response units (RU) corresponding to 13 ng/mm^2 of HSC70 was immobilized. Twenty μL of a 50 mM cysteine/1 M NaCl solution was used to saturate unoccupied sites on the chip. The direct binding measurement of P140 peptides to HSC70 was carried out at 25° C. with a constant flow rate of 20 μL/min. […] The kinetic parameters were calculated using the BIAeval 3.1 software on a personal computer. […]

MRL/lpr mice [2] = test: Proteinuria analysis in MRL/lpr mice (Albustix); assay type: in vivo, mouse; settings: compared to the untreated mice
Method: Proteinuria of the above mice was measured in fresh urine using Albustix (Bayer Diagnostics) and was semi-quantitatively estimated according to a […] recommended by the manufacturer (no proteinuria=0; traces=1; 1+=2; 2+=3; 3+=4; 4+=5).
Statistical tests were performed using GraphPad Prism version 5.0. The two-way ANOVA test was used to analyze statistical significance of proteinuria differences between control and peptide-treated groups of mice. Survival of control and P140 analogue-treated female MRL/lpr mice was analyzed by the Kaplan-Meier method, and the significance of differences was determined by the log-rank test. For the other variables, statistical significance was assessed using the Student's t-test. p values less than 0.05 were considered significant.

MRL/lpr mice [3] = test: Cellularity analysis of peripheral blood in MRL/lpr mice; assay type: in vivo, mouse; settings: 100 μg/100 μL, 5 days after unique injection
Method: MRL/lpr mice were injected with 100 μg/100 μL of P140 or P140(MO) and cellularity (preipheral blood) was studied 5 days after this unique injection. The count includes all the leucocytes. In view of the low number of tested mice, a non parametric statistical test has been realised Mann-Whitney).

mice = settings: Monneaux et al., 2003; cited from earlier work

T1 sequence (P19120 whole entry): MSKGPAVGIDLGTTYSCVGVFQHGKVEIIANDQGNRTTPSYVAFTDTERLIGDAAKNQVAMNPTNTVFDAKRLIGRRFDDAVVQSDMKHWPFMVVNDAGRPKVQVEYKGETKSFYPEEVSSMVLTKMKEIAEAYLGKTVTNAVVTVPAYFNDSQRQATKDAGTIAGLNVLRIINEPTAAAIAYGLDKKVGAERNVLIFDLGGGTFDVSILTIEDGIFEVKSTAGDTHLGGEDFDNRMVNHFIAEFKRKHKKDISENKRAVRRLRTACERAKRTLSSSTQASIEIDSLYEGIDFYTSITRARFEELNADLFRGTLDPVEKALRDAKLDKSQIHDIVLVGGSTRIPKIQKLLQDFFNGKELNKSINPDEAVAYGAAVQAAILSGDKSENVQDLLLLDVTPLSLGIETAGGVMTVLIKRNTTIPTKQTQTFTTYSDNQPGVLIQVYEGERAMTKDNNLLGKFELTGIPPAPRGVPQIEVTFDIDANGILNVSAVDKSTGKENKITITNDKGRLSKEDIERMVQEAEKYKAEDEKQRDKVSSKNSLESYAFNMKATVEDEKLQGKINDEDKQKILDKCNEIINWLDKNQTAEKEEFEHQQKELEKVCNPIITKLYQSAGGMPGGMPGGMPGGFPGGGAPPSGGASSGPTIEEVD

| Number of cells recovered in BAL fluid as compared to vehicle (Balb/c mice) | Stability (%) Linear equation: coefficient of x (days) ([1]; 50 μg/mL) | Stability (%) Linear equation: constant term ([1]; 50 μg/mL) | Stability (%) Linear equation: coefficient of x (days) ([1]; 100 μg/mL) | Stability (%) Linear equation: constant term ([1]; 100 μg/mL) | Stability (%) Linear equation: coefficient of x (days) ([1]; 200 μg/mL) | Stability (%) Linear equation: constant term ([1]; 200 μg/mL) | Affinity for HSC70 protein, comparison of oxidized and non-oxidized peptide (Recombinant bovine HSC70) | Molecule | Proteinuria score over time (MRL/lpr mice [2]) | Peripheral hypercellularity (leucocytes in blood) (MRL/lpr mice [3]) | Protection against disease development (mice) |
| --- | --- | --- | --- | --- | --- | --- | --- | --- | --- | --- | --- |
| little effect per se | y = −0.099x + | 98.299 | y = −0.0612x + | 99.25 | y = −0.0238x + | 99.535 | – | CC[C@H](C)[C@H](NC(=O)[C@H](Cc1ccccc1)NC(=O)[C@H](C)NC(=O)[C@H](Cc1ccc(O)cc1)NC(=O)CNC(=O)[C@H](CCCNC(=N)N)NC(=O)[C@@H]1CCCN1C(=O)[C@H](CCCCN)NC(=O)CNC(=O)[C@H](COP(=O)(O)O)NC(=O)[C@H](CCCNC(=N)N)NC(=O)[C@H](CCCCN)NC(=O)[C@H](CO)NC(=O)[C@H](Cc1ccc(O)cc1)NC(=O)[C@@H](NC(=O)[C@H](CCSC)NC(=O)[C@H](Cc1c[nH]cn1)NC(=O)[C@@H](NC(=O)[C@@H](N)CCCNC(=N)N)[C@@H](C)CC)C(C)C)C(=O)N[C@@H](CCC(=O)O)C(=O)N[C@@H](Cc1ccc(O)cc1)C(=O)O [Compound P140] (H-RIHMVYSKR[pS]GKPRGYAFIEY-OH) | – | – | – |
| – | y = −0.0064x + | 99.677 | y = −0.0064x + | 100.11 | – | y = 100 | not statistically different | CC[C@H](C)[C@H](NC(=O)[C@H](Cc1ccccc1)NC(=O)[C@H](C)NC(=O)[C@H](Cc1ccc(O)cc1)NC(=O)CNC(=O)[C@H](CCCNC(=N)N)NC(=O)[C@@H]1CCCN1C(=O)[C@H](CCCCN)NC(=O)CNC(=O)[C@H](COP(=O)(O)O)NC(=O)[C@H](CCCNC(=N)N)NC(=O)[C@H](CCCCN)NC(=O)[C@H](CO)NC(=O)[C@H](Cc1ccc(O)cc1)NC(=O)[C@@H](NC(=O)[C@H](CC[S+](C)[O-])NC(=O)[C@H](Cc1c[nH]cn1)NC(=O)[C@@H](NC(=O)[C@@H](N)CCCNC(=N)N)[C@@H](C)CC)C(C)C)C(=O)N[C@@H](CCC(=O)O)C(=O)N[C@@H](Cc1ccc(O)cc1)C(=O)O (stereo partly shown) [P140(MO), RIHM(O)VYSKRS(PO3H2)GKPRGYAFIEY] (H-RIH[Met(O)]VYSKR[pS]GKPRGYAFIEY-OH) | less important and appears lately | decrease peripheral hypercellularity | – |
| – | – | – | – | – | – | – | – | non-phosphorylated peptide: non-phosphorylated form of P140, not protective against disease development in mice (RIHMVYSKRSGKPRGYAFIEY; not fully specified; UniProt P08621 131-151, looked up, fragment) | – | – | not protective |
